Experiments:
corn = assay: Test B pre/postemergence corn; assay type: in vivo, Zea mays
In short: (§1)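 Herbicidal effect was estimated by eye on a ten-point control scale after plants spent twelve to sixteen days in a greenhouse following soil or foliar treatment. Foliar sprays targeted plants at one to four leaves; all doses were formulated in a non-phytotoxic solvent with surfactant.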

sugar beet = assay: Test B pre/postemergence sugar beet; assay type: in vivo, Beta vulgaris
In short: as §1

wild oat = assay: Test B pre/postemergence wild oat; assay type: in vivo, Avena fatua
In short: as §1

cocklebur = assay: Test B pre/postemergence cocklebur; assay type: in vivo, Xanthium strumarium
In short: as §1

bedstraw = assay: Test B pre/postemergence bedstraw; assay type: in vivo, Galium aparine
In short: as §1

purple nutsedge = assay: Test B pre/postemergence purple nutsedge; assay type: in vivo, Cyperus rotundus
In short: as §1

giant foxtail = assay: Test B pre/postemergence giant foxtail; assay type: in vivo, Setaria faberii
In short: as §1

velvetleaf = assay: Test B pre/postemergence velvetleaf; assay type: in vivo, Abutilon theophrasti
In short: as §1

rape = assay: Test B pre/postemergence rape; assay type: in vivo, Brassica napus
In short: as §1

blackgrass = assay: Test B pre/postemergence blackgrass; assay type: in vivo, Alopecurus myosuroides
In short: as §1

wheat = assay: Test B pre/postemergence wheat; assay type: in vivo, Triticum aestivum
In short: as §1

surinam grass = assay: Test B pre/postemergence surinam grass; assay type: in vivo, Brachiaria decumbens
In short: as §1

soybean = assay: Test B pre/postemergence soybean; assay type: in vivo, Glycine max
In short: as §1

crabgrass = assay: Test B pre/postemergence crabgrass; assay type: in vivo, Digitaria sanguinalis
In short: as §1

pigweed = assay: Test B pre/postemergence pigweed; assay type: in vivo, Amaranthus retroflexus
In short: as §1

morningglory = assay: Test B pre/postemergence morningglory; assay type: in vivo, Ipomoea hederacea
In short: as §1

[1] = Postemergence, Rate 62 g/ha, scale of 0 to 10, 0 is no effect, 10 is complete control
[2] = Postemergence, Rate 125 g/ha, scale 0 to 10, 0 is no effect, 10 is complete control
[3] = Postemergence, Rate 500 g/ha, scale 0 to 10, 0 is no effect, 10 is complete control
[4] = Preemergence, Rate 62 g/ha, scale of 0 to 10 where 0 is no effect and 10 is complete control
[5] = Preemergence, Rate 125 g/ha, scale 0 to 10, 0 is no effect, 10 is complete control
[6] = Preemergence, Rate 500 g/ha, scale of 0 to 10 where 0 is no effect and 10 is complete control
[7] = Rate 250 g/ha, Postemergence, scale of 0 to 10 where 0 is no effect and 10 is complete control
[8] = Preemergence, Rate 500 g/ha, scale 0 to 10, 0 is no effect, 10 is complete control
[9] = Preemergence, Rate 125 g/ha, scale of 0 to 10 where 0 is no effect and 10 is complete control
[10] = Preemergence, Rate 250 g/ha, scale 0 (no effect) to 10 (complete control)
[11] = Rate 500 g/ha, Preemergence, scale 0 to 10 (0 no effect, 10 complete control)

CC(C)N(C(=O)n1oc(=O)n(CCCCF)c1=O)c1ccc(F)cc1F [Compound 522]
Corn plant response rating (corn; [1]): 0 | Corn plant response rating (corn; [2]): 3 | Plant response rating, Corn (corn; [3]): 5 | Plant response rating, Corn (corn; [4]): 2 | Corn plant response rating (corn; [5]): 7 | Corn plant response rating (0 to 10 scale) (corn; Preemergence, Rate 250 g/ha): 7 | Corn plant response rating (corn; [6]): 9 | Plant response rating, Corn (corn; [7]): 3 | Sugarbeets plant response rating (sugar beet; [1]): 6 | Sugarbeets plant response rating (sugar beet; [2]): 6 | Plant response rating, Sugarbeets (sugar beet; [3]): 6 | Plant response rating, Sugarbeets (sugar beet; [4]): 5 | Sugarbeets plant response rating (sugar beet; [5]): 5 | Sugarbeets plant response rating (0 to 10 scale) (sugar beet; Preemergence, Rate 250 g/ha): 5 | Sugarbeets plant response rating (sugar beet; [6]): 7 | Plant response rating, Sugarbeets (sugar beet; [7]): 6 | Wild oats plant response rating (wild oat; [1]): 0 | Wild oats plant response rating (wild oat; [2]): 4 | Plant response rating, Wild oats (wild oat; [3]): 7 | Plant response rating, Wild oats (wild oat; [4]): 10 | Wild oats plant response rating (wild oat; [5]): 2 | Wild oats plant response rating (0 to 10 scale) (wild oat; Preemergence, Rate 250 g/ha): 4 | Wild oats plant response rating (wild oat; [6]): 9 | Plant response rating, Wild oats (wild oat; [7]): 7 | Cocklebur plant response rating (cocklebur; [1]): 0 | Cocklebur plant response rating (cocklebur; [2]): 3 | Plant response rating, Cocklebur (cocklebur; [3]): 3 | Plant response rating, Cocklebur (cocklebur; [4]): 0 | Cocklebur plant response rating (cocklebur; [5]): 0 | Cocklebur plant response rating (0 to 10 scale) (cocklebur; Preemergence, Rate 250 g/ha): 0 | Plant response rating, Cocklebur (cocklebur; [7]): 3 | Bedstraw plant response rating (bedstraw; [1]): 0 | Bedstraw plant response rating (bedstraw; [2]): 0 | Plant response rating, Bedstraw (bedstraw; [3]): 10 | Plant response rating, Bedstraw (bedstraw; [4]): 10 | Bedstraw plant response rating (bedstraw; [5]): 10 | Bedstraw plant response rating (0 to 10 scale) (bedstraw; Preemergence, Rate 250 g/ha): 10 | Bedstraw plant response rating (bedstraw; [8]): 10 | Plant response rating, Bedstraw (bedstraw; [7]): 9 | Nutsedge plant response rating (purple nutsedge; [1]): 0 | Nutsedge plant response rating (purple nutsedge; [2]): 0 | Plant response rating, Nutsedge (purple nutsedge; [3]): 0 | Plant response rating, Nutsedge (purple nutsedge; [4]): 0 | Nutsedge plant response rating (purple nutsedge; [5]): 9 | Nutsedge plant response rating (0 to 10 scale) (purple nutsedge; Preemergence, Rate 250 g/ha): 10 | Nutsedge plant response rating (purple nutsedge; [6]): 10 | Plant response rating, Nutsedge (purple nutsedge; [7]): 0 | Giant foxtail plant response rating (giant foxtail; [1]): 8 | Giant foxtail plant response rating (giant foxtail; [2]): 8 | Plant response rating, Giant foxtail (giant foxtail; [3]): 9 | Plant response rating, Giant foxtail (giant foxtail; [4]): 10 | Giant foxtail plant response rating (giant foxtail; [5]): 10 | Giant foxtail plant response rating (0 to 10 scale) (giant foxtail; Preemergence, Rate 250 g/ha): 10 | Giant foxtail plant response rating (giant foxtail; [6]): 10 | Velvetleaf plant response rating (velvetleaf; [1]): 2 | Velvetleaf plant response rating (velvetleaf; [2]): 5 | Plant response rating, Velvetleaf (velvetleaf; [3]): 7 | Plant response rating, Velvetleaf (velvetleaf; [4]): 2 | Velvetleaf plant response rating (velvetleaf; [5]): 6 | Velvetleaf plant response rating (0 to 10 scale) (velvetleaf; Preemergence, Rate 250 g/ha): 8 | Velvetleaf plant response rating (velvetleaf; [6]): 9 | Plant response rating, Velvetleaf (velvetleaf; [7]): 7 | Rape plant response rating (rape; [1]): 0 | Rape plant response rating (rape; [2]): 0 | Plant response rating, Rape (rape; [3]): 9 | Plant response rating, Rape (rape; [4]): 0 | Rape plant response rating (rape; [5]): 2 | Rape plant response rating (0 to 10 scale) (rape; Preemergence, Rate 250 g/ha): 4 | Rape plant response rating (rape; [6]): 6 | Plant response rating, Rape (rape; [7]): 0 | Blackgrass plant response rating (blackgrass; [1]): 8 | Blackgrass plant response rating (blackgrass; [2]): 8 | Plant response rating, Blackgrass (blackgrass; [3]): 8 | Plant response rating, Blackgrass (blackgrass; [4]): 4 | Blackgrass plant response rating (blackgrass; [5]): 8 | Blackgrass plant response rating (0 to 10 scale) (blackgrass; Preemergence, Rate 250 g/ha): 9 | Blackgrass plant response rating (blackgrass; [6]): 9 | Plant response rating, Blackgrass (blackgrass; [7]): 8 | Wheat plant response rating (wheat; [1]): 0 | Wheat plant response rating (wheat; [2]): 0 | Plant response rating, Wheat (wheat; [3]): 5 | Plant response rating, Wheat (wheat; [4]): 0 | Wheat plant response rating (wheat; [5]): 0 | Wheat plant response rating (0 to 10 scale) (wheat; Preemergence, Rate 250 g/ha): 2 | Wheat plant response rating (wheat; [6]): 8 | Plant response rating, Wheat (wheat; [7]): 5 | B. signalgrass plant response rating (surinam grass; [1]): 0 | B. signalgrass plant response rating (surinam grass; [2]): 5 | Plant response rating, B. signalgrass (surinam grass; [3]): 7 | Plant response rating, B. signalgrass (surinam grass; [4]): 10 | B. signalgrass plant response rating (surinam grass; [5]): 9 | B. signalgrass plant response rating (0 to 10 scale, 0 is no effect, 10 is complete control) (surinam grass; Preemergence, Rate 250 g/ha): 9 | B. signalgrass plant response rating (surinam grass; [8]): 9 | Plant response rating, B. signalgrass (surinam grass; [7]): 7 | Soybean plant response rating (soybean; [1]): 4 | Soybean plant response rating (soybean; [2]): 6 | Plant response rating, Soybean (soybean; [3]): 6 | Plant response rating, Soybean (soybean; [4]): 0 | Soybean plant response rating (soybean; [5]): 0 | Soybean plant response rating (0 to 10 scale) (soybean; Preemergence, Rate 250 g/ha): 0 | Soybean plant response rating (soybean; [6]): 10 | Crabgrass plant response rating (crabgrass; [1]): 8 | Crabgrass plant response rating (crabgrass; [2]): 8 | Plant response rating, Crabgrass (crabgrass; [3]): 9 | Plant response rating, Crabgrass (crabgrass; [4]): 9 | Crabgrass plant response rating (crabgrass; [5]): 10 | Crabgrass plant response rating (0 to 10 scale) (crabgrass; Preemergence, Rate 250 g/ha): 10 | Crabgrass plant response rating (crabgrass; [6]): 10 | Plant response rating, Crabgrass (crabgrass; [7]): 8 | Redroot pigweed plant response rating (pigweed; [1]): 0 | Redroot pigweed plant response rating (pigweed; [2]): 4 | Plant response rating, Redroot pigweed (pigweed; [3]): 9 | Plant response rating, Redroot pigweed (pigweed; [4]): 10 | Redroot pigweed plant response rating (pigweed; [5]): 10 | Redroot pigweed plant response rating (0 to 10 scale) (pigweed; Preemergence, Rate 250 g/ha): 10 | Redroot pigweed plant response rating (pigweed; [6]): 10 | Plant response rating, Redroot pigweed (pigweed; [7]): 4 | Morningglory plant response rating (morningglory; [1]): 3 | Morningglory plant response rating (morningglory; [2]): 4 | Plant response rating, Morningglory (morningglory; [3]): 5 | Plant response rating, Morningglory (morningglory; [4]): 0 | Morningglory plant response rating (morningglory; [5]): 2 | Morningglory plant response rating (0 to 10 scale) (morningglory; Preemergence, Rate 250 g/ha): 2 | Morningglory plant response rating (morningglory; [6]): 4 | Plant response rating, Morningglory (morningglory; [7]): 4

COCC(OC)n1c(=O)on(C(=O)N(c2ccccc2)C(C)C)c1=O (centres unmarked) [Compound 734]
Corn plant response rating (corn; [4]): 0 | Plant response rating, Corn (corn; [9]): 5 | Corn plant response rating (corn; [10]): 9 | Corn plant response rating (corn; [11]): 9 | Sugarbeets plant response rating (sugar beet; [4]): 0 | Plant response rating, Sugarbeets (sugar beet; [9]): 2 | Sugarbeets plant response rating (sugar beet; [10]): 5 | Sugarbeets plant response rating (sugar beet; [11]): 8 | Wild oats plant response rating (wild oat; [4]): 3 | Plant response rating, Wild oats (wild oat; [9]): 8 | Wild oats plant response rating (wild oat; [10]): 10 | Wild oats plant response rating (wild oat; [11]): 10 | Cocklebur plant response rating (cocklebur; [4]): 0 | Plant response rating, Cocklebur (cocklebur; [9]): 0 | Cocklebur plant response rating (cocklebur; [10]): 0 | Cocklebur plant response rating (cocklebur; [11]): 0 | Bedstraw plant response rating (bedstraw; [4]): 0 | Plant response rating, Bedstraw (bedstraw; [9]): 0 | Bedstraw plant response rating (bedstraw; [10]): 0 | Bedstraw plant response rating (bedstraw; [11]): 0 | Nutsedge plant response rating (purple nutsedge; [4]): 0 | Plant response rating, Nutsedge (purple nutsedge; [9]): 0 | Nutsedge plant response rating (purple nutsedge; [10]): 0 | Giant foxtail plant response rating (giant foxtail; [4]): 9 | Plant response rating, Giant foxtail (giant foxtail; [9]): 10 | Giant foxtail plant response rating (giant foxtail; [10]): 10 | Giant foxtail plant response rating (giant foxtail; [11]): 10 | Velvetleaf plant response rating (velvetleaf; [4]): 2 | Plant response rating, Velvetleaf (velvetleaf; [9]): 3 | Velvetleaf plant response rating (velvetleaf; [10]): 5 | Velvetleaf plant response rating (velvetleaf; [11]): 7 | Rape plant response rating (rape; [4]): 0 | Plant response rating, Rape (rape; [9]): 2 | Rape plant response rating (rape; [10]): 5 | Rape plant response rating (rape; [11]): 7 | Blackgrass plant response rating (blackgrass; [4]): 7 | Plant response rating, Blackgrass (blackgrass; [9]): 9 | Blackgrass plant response rating (blackgrass; [10]): 9 | Blackgrass plant response rating (blackgrass; [11]): 10 | Wheat plant response rating (wheat; [4]): 0 | Plant response rating, Wheat (wheat; [9]): 7 | Wheat plant response rating (wheat; [10]): 8 | Wheat plant response rating (wheat; [11]): 9 | B. signalgrass plant response rating (surinam grass; [4]): 9 | Plant response rating, B. signalgrass (surinam grass; [9]): 9 | B. signalgrass plant response rating (surinam grass; [10]): 9 | B. signalgrass plant response rating (surinam grass; [11]): 9 | Soybean plant response rating (soybean; [4]): 0 | Plant response rating, Soybean (soybean; [9]): 0 | Soybean plant response rating (soybean; [10]): 0 | Soybean plant response rating (soybean; [11]): 7 | Crabgrass plant response rating (crabgrass; [4]): 9 | Plant response rating, Crabgrass (crabgrass; [9]): 9 | Crabgrass plant response rating (crabgrass; [10]): 9 | Crabgrass plant response rating (crabgrass; [11]): 10 | Redroot pigweed plant response rating (pigweed; [4]): 2 | Plant response rating, Redroot pigweed (pigweed; [9]): 7 | Redroot pigweed plant response rating (pigweed; [10]): 8 | Redroot pigweed plant response rating (pigweed; [11]): 8 | Morningglory plant response rating (morningglory; [4]): 2 | Plant response rating, Morningglory (morningglory; [9]): 2 | Morningglory plant response rating (morningglory; [10]): 3 | Morningglory plant response rating (morningglory; [11]): 6

Reference: patent US6737383B1, “Herbicidal oxadiazolidines” (priority 1999, dated 2004)
